Measurements as given in patent US5776962A, “Lactone compounds for treating patient with precancerous lesions” (priority 1995, dated 1998).
“Also recorded” adds a separate entry of the source. Like-named read-outs stand apart in the source and are kept apart here.

Legend:
[1] = tested on: HT-29 human colonic adenocarcinoma cells; assay: Sulforhodamine B Assay, tumor cell growth inhibition, HT-29; format: cell-based; settings: for SELECTIVITY INDEX (HT-29 IC50 / PGE2 IC50): ratio of HT-29 IC50 to PGE2 IC50
Experimental: The compounds of this invention were assayed for their effect on various cell lines representative of precancerous lesions to ascertain the degree of tumor growth inhibition following treatment with compounds of this invention. The cell lines employed for these experiments were well characterized, and are used by the United States National Cancer Institute in their screening program for new anti-cancer drugs. Growth inhibition of this cell line is thought to be indicative of a benefit on precancerous lesions and neoplasms.
Tumor cell cytotoxicity was assessed using the Sulforhodamine B Assay. In this assay, tumor cells were plated in 96-well plates and treated with drug-containing media for seven days (continuous exposure). At the end of the exposure period, the cells were fixed and stained with sulforhodamine B (a pink fluorescent dye). The dye was then solubilized, and the optical density of the resulting pink solution determined on a 96-well plate reader. The mean dye intensity of the treated wells was then divided by the mean dye intensity in the control wells (6 wells of each) to determine the effect of the drug on the cells. Dye intensity is proportional to the number of cells or amount of protein per well. The resultant "percent of control" value then represents the degree of growth inhibition caused by the drug.
For each experiment, an IC50 value was determined and used for comparative purposes. This value is equivalent to the concentration of drug needed to inhibit tumor cell growth by 50%. IC50 values were obtained graphically by connecting the mean values for each drug concentration tested. Each experiment included at least six wells per drug concentration. Concentration was plotted on a log scale on the X-axis.

prostaglandin synthesis = settings: background; cited from earlier work
[2] = tested on: prostaglandin E2 (PGE2) production by differentiated HL-60 cells (anti-PG synthetase activity); assay: Inhibition of prostaglandin E2 (PGE2) production in differentiated HL-60 cells after A23187 stimulation (EIA); format: cell-based, human; settings: for IC50: Table III, differentiated HL-60, A23187 (5×10^-6 M) stimulation, read-out: (Anti-PG Synthetase activity) PGE2 I.C.50
Experimental: Compounds of this invention, as well as several others (see Table II below), were evaluated to determine whether they inhibited the production of prostaglandin E2 (PGE2), according to the procedure below. […] Secreted […] is measured using an enzyme immunoassay (EIA) kit.
Specifically, HL-60 is a human promyelocytic cell line which may be differentiated in mature granulocytes in the presence of compounds such as dimethyl sulfoxide (DMSO). These cells are obtained from the American Type Culture Collection (ATCC:CCL240).
The differentiated HL-60 cells (3×10^6 cells/ml) are incubated for 15 min at 37° C. in the presence of the compounds listed in Table II at the desired concentration. Cells are then stimulated by A23187 (5×10^-6 M) for 15 min. Secreted PGE2 into the external medium is measured by EIA using a commercially available EIA kit.
The quantity of PGE2 secreted is expressed in ng/10^6 cells using a standard curve. Data are converted using a curve fitting of the four parameter logistic equation: [formula] […] The IC50 values are determined using Hill equation.

polyps = settings: patients; background; cited from earlier work
[3] = background; cited from earlier work
[4] = background; prophylactic use / conventional NSAIDs; cited from earlier work
[5] = Homo sapiens, Table II, cell line HT-29, read-out: IC50
[6] = Table II, cell line HT-29, read-out: IC50
[7] = Table III, HT-29, read-out: (Anti-proliferative activity) HT-29 I.C.50
[8] = Homo sapiens, Table III, HT-29, read-out: (Anti-proliferative activity) HT-29 I.C.50

Question: With `CC1=C(CC(=O)O)c2cc(F)ccc2/C1=C\c1ccc(S(C)(=O)=O)cc1` [Sulfone, reference compound] as the compound, how does the “SELECTIVITY INDEX (HT-29 IC50 / PGE2 IC50)” value ([1]; Table III) read?
Answer: The value was 1.19.

Question: And the “inhibition of prostaglandin synthesis (in words)” value (prostaglandin synthesis)?
Answer: Its value is “inactive as an inhibitor of prostaglandin synthesis”.

Question: With `CC(=O)N[C@@H](CSC12CC(=O)OC1(C)/C(=C/c1ccc(S(C)(=O)=O)cc1)c1ccc(F)cc12)C(=O)O` (mixture of isomers) [Example 33, rac-threo-(E)-1-(butan-1',4'-olido)-[3',4':1,2]-6-fluoro-2-methyl-3-(p-methylsulfonylbenzylidene)-1S-indanyl-N-acetylcysteine] as the compound, how does the IC50 [1, 5] read?
Answer: The IC50 was 30000 nM.

Question: With `CCN(CC)CCS[C@]12CC(=O)O[C@@]1(C)N(C(=O)c1ccc(Cl)cc1)c1ccc(OC)cc12` (relative stereo) [Example 37, rac-threo-3-(Butan-1',4'-olido)-[3',4':3,2]-3-(N,N'-diethylaminoethanethio)-1-(4-chlorobenzoyl)-5-methoxy-2-methyl-2,3-dihydroindole] as the compound, how does the IC50 [1, 5] read?
Answer: The IC50 was 29000 nM.

Question: Which IC50 [1, 6] does the source give for “rac-threo-(E)-1-(butan-1',4'-olido)-[3',4':1,2]-6-fluoro-2-methyl-3-(p-methylsulfonylbenzylidene)-1S-indanyl-glutathione [Example 34]” here?
Answer: The IC50 was 3600 nM.

Question: And the IC50 [1, 7]?
Answer: The IC50 was 3600 nM.

Question: What about the “SELECTIVITY INDEX (HT-29 IC50 / PGE2 IC50)” value ([1]; Table III) of the same compound?
Answer: Its value is less than 0.036.

Question: And the IC50 [2]?
Answer: Its IC50 is greater than 100000 nM.

Question: For `CC12OC(=O)C=C1c1cc(F)ccc1/C2=C\c1ccccc1` (racemic) [Example 27, rac-(E)-1-(2'-buten-1',4'-olido)-[3',4':1,2]-6-fluoro-2-methyl-3-benzylidene-indan], which IC50 [1, 5] is on record?
Answer: Its IC50 is 340 nM.

Question: For `COc1cc(/C=C2\c3ccc(F)cc3C3=CC(=O)OC32C)cc(OC)c1OC` (racemic) [Example 28, rac-(E)-1-(2'-buten-1',4'-olido)-[3',4':1,2]-6-fluoro-2-methyl-3-(3,4,5-trimethoxybenzylidene)-indan], which IC50 [1, 5] is on record?
Answer: Its IC50 is 280 nM.

Question: For “rac-threo-(E)-1-N,N-Diethylamino-1-(butan-1',4'-olido)-[3',4':1,2]-6-fluoro-2-methyl-3-(p-methylsulfonylbenzylidene)-indan [Example 30]”, which IC50 [1, 6] is on record?
Answer: The IC50 was 350 nM.

Question: And the IC50 [1, 7]?
Answer: Its IC50 is 350 nM.

Question: And the “SELECTIVITY INDEX (HT-29 IC50 / PGE2 IC50)” value ([1]; Table III)?
Answer: The value was less than 0.0035.

Question: What about the IC50 [2] of the same compound?
Answer: Its IC50 is greater than 100000 nM.

Question: With `CC1=C(CC(=O)O)c2cc(F)ccc2/C1=C\c1ccc([S+](C)[O-])cc1` (centres unmarked) [Sulindac] as the compound, how does the “effect on polyps (in words)” value (polyps) read?
Answer: The value was “Polyps virtually disappear”.

Question: And the “metabolism (in words)” value [3]?
Answer: Its value is “converted by liver enzymes to the corresponding sulfide; also recorded: metabolized to sulfone compound”.

Question: Which IC50 ([1]; Homo sapiens, Table II, cell line HT-29 p 135, read-out: IC50) does the source give for `CC12OC(=O)CC1(O)c1cc(F)ccc1/C2=C\c1ccc(S(C)(=O)=O)cc1` (racemic) [Example 11, rac-threo-(E)-1-Hydroxy-1-(butan-1',4'-olido)-[3',4':1,2]-6-fluoro-2-methyl-3-(p-methylsulfonylbenzylidene)-indan] here?
Answer: Its IC50 is 100000 nM.

Question: For `CC12OC(=O)C=C1c1cc(F)ccc1/C2=C\c1ccc(S(C)(=O)=O)cc1` (racemic) [Example 3, rac-(E)-1-(2'-Buten-1',4'-olido)-[3',4':1,2]-6-fluoro-2-methyl-3-(p-methylsulfonylbenzylidene)-indan], which “anti-proliferative activity (in words)” value [1] is on record?
Answer: Its value is “outstanding anti-proliferative activity”.

Question: What about the “anti-PG-synthetase / anti-prostaglandin activity (in words)” value [2] of the same compound?
Answer: Its value is “essentially lacking anti-prostaglandin activity at therapeutic concentrations”.

Question: With `CC12OC(=O)CC1(SC[C@H](N)C(=O)O)c1cc(F)ccc1/C2=C\c1ccc(S(C)(=O)=O)cc1` (mixture of isomers) [Example 32, rac-threo-(E)-1-(butan-1',4'-olido)-[3',4':1,2]-6-fluoro-2-methyl-3-(p-methylsulfonylbenzylidene)-1S-indanyl-L-cysteine] as the compound, how does the IC50 [1, 5] read?
Answer: Its IC50 is 2100 nM.

Question: With `CC12OC(=O)CC1(C#N)c1cc(F)ccc1/C2=C\c1ccc(S(C)(=O)=O)cc1` (racemic) [Example 13, rac-threo-(E)-1-Cyano-1-(butan-1',4'-olido)-[3',4':1,2]-6-fluoro-2-methyl-3-(p-methylsulfonylbenzylidene)-indan] as the compound, how does the IC50 ([1]; Homo sapiens, Table II, cell line HT-29 p 136 (?), read-out: IC50) read?
Answer: The IC50 was greater than 50000 nM.

Question: With `COc1ccc2c(c1)C1=CC(=O)OC1(C)N2C(=O)c1ccc(Cl)cc1` (racemic) [Example 36, rac-3-(2'-Buten-1',4'-olido)-[3',4':3,2]-1-(4-chlorobenzoyl)-5-methoxy-2-methyl-2,3-dihydroindole] as the compound, how does the IC50 [1, 5] read?
Answer: Its IC50 is 2000 nM.

Question: What about the IC50 [1, 8] of the same compound?
Answer: Its IC50 is 2000 nM.

Question: What about the “SELECTIVITY INDEX (HT-29 IC50 / PGE2 IC50)” value ([1]; Table III) of the same compound?
Answer: Its value is 25.

Question: And the IC50 ([2]; Homo sapiens)?
Answer: The IC50 was 80 nM.

Question: For `CCN(CC)CCSC12CC(=O)OC1(C)/C(=C/c1ccc(S(C)(=O)=O)cc1)c1ccc(F)cc12` (racemic) [Example 12, rac-threo-(E)-1-(N,N'-diethylaminoethanethio)-1-(butan-1',4'-olido)-[3',4':1,2]-6-fluoro-2-methyl-3-(p-methylsulfonylbenzylidene)-indan], which IC50 [1, 8] is on record?
Answer: Its IC50 is 430 nM.

Question: What about the “SELECTIVITY INDEX (HT-29 IC50 / PGE2 IC50)” value ([1]; Table III) of the same compound?
Answer: Its value is less than 0.0043.

Question: What about the IC50 ([2]; Homo sapiens) of the same compound?
Answer: Its IC50 is greater than 100000 nM.

Question: Which “anti-proliferative activity (in words)” value [1] does the source give for `CSc1ccc(/C=C2/C(C)=C(CC(=O)O)c3cc(F)ccc32)cc1` [Sulindac Sulfide, reference compound] here?
Answer: The value was “good anti-proliferative activity”.

Question: What about the “anti-PG-synthetase / anti-prostaglandin activity (in words)” value [2] of the same compound?
Answer: The value was “high degree of anti-PG-synthetase activity”.

Question: What about the inhibition at 10 µM ([2]; Homo sapiens, HL-60, read-out: inhibit PGE2 production) of the same compound?
Answer: Its inhibition at 10 µM is 100%.

Question: And the “side effects (in words)” value [4]?
Answer: The value was “associated with the side effects of conventional NSAIDs”.

Question: What about the “inhibition of prostaglandin synthesis (in words)” value (prostaglandin synthesis) of the same compound?
Answer: The value was “active moiety as a prostaglandin inhibitor”.

Question: For `C[C@@]12OC(=O)C[C@]1(SCC(=O)O)c1cc(F)ccc1/C2=C\c1ccc(S(C)(=O)=O)cc1` (relative stereo) [Example 31, rac-threo-(E)-1-(butan-1',4'-olido)-[3',4':1,2]-6-fluoro-2-methyl-3-(p-methylsulfonylbenzylidene)-1S-indanyl-mercaptoacetic acid], which IC50 [1, 5] is on record?
Answer: The IC50 was 50000 nM.

Question: Which IC50 [1, 6] does the source give for “rac-ribo-(E)-1-Triazolo-[2',3':1",3"]-1-(butan-1',4'-olido)-[3',4':1,2]-6-fluoro-2-methyl-3-(methylsulfonylbenzylidene)-indan [Example 29]” here?
Answer: Its IC50 is 2400 nM.

Question: And the IC50 [1, 7]?
Answer: Its IC50 is 2400 nM.

Question: And the “SELECTIVITY INDEX (HT-29 IC50 / PGE2 IC50)” value ([1]; Table III)?
Answer: The value was 1.6.

Question: What about the IC50 [2] of the same compound?
Answer: Its IC50 is 1500 nM.
